Test results as given in PubChem BioAssay AID1552 (Sanford-Burnham Center for Chemical Genomics, 2009).
Activity calls are given as the source filed them. The rule behind the calls is not given here.

What follows are compounds tested against Ubiquitin-conjugating enzyme E2 N (Homo sapiens) (UniProt P61088) (assay: NMR detection of UBE2N ligand binding – biophysical, purified protein (AID 1552)). Conditions: NMR binding to purified UBE2N.
Sequence of Ubiquitin-conjugating enzyme E2 N (Homo sapiens) (P61088 whole entry, looked up): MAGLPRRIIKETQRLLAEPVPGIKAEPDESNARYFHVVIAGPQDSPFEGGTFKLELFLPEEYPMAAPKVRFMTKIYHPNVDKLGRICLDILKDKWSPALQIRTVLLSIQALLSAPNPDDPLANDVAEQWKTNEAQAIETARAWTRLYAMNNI
In the case of `CCC(C)C(NC)C(=O)O` (configuration not stated), the Kd is reported as > 4 mM (inactive). In the case of `CC1=C(/C=C/C(C)=C/C=C/C(C)=C/C=C/C=C(C)/C=C/C=C(C)/C=C/C2=C(C)CCCC2(C)C)C(C)(C)CCC1`, the Kd is reported as > 4 mM (inactive). `Nc1nc2ccccc2n1CCN1CCCC1` was tested, and the Kd was > 4 mM (inactive). For `O=c1[nH]cc(COCc2ccccc2)c(=O)[nH]1`, the Kd was > 4 mM (inactive). With `NC1Cc2ccccc2C1` the Kd was > 4 mM (inactive). With `CC(C)(C)C(=O)N1CCCC1C(=O)O` (configuration not stated) the Kd was > 4 mM (inactive). `Nc1ccc2sccc2c1` was tested, and the Kd was > 4 mM (inactive). With `CCCCCCCCCCCCCCC(C(=O)OC)C(O)(CC(=O)OC)C(=O)OC` (configuration not stated) the Kd was > 4 mM (inactive). `NC(=O)CSc1ccccn1` was tested, and the Kd was > 4 mM (inactive). In the case of `Cc1nc2c(=O)[nH]c3ccccc3c2o1`, the Kd is reported as > 4 mM (inactive). In the case of `O=C(NC1=NCCS1)c1ccc([N+](=O)[O-])cc1Cl`, the Kd is reported as > 4 mM (inactive). `Cc1cc(S(=O)(=O)N2CCOCC2)ccc1F` was tested, and the Kd was > 4 mM (inactive). With `Cn1c(=O)cc(N2CCCCC2)[nH]c1=O` the Kd was > 4 mM (inactive). With `O=C1CSC(c2ccccc2)N1` (configuration not stated) the Kd was > 4 mM (inactive). `CCOC(=O)c1c(C)cc(O)c(C)c1O` was tested, and the Kd was > 4 mM (inactive). With `O=C(O)c1cc(O)c2c(c1)[C@@H]([C@H]1c3cc(C(=O)O)cc(O)c3C(=O)c3c(O[C@H]4O[C@H](CO)[C@@H](O)[C@H](O)[C@H]4O)cccc31)c1cccc(O[C@H]3O[C@H](CO)[C@@H](O)[C@H](O)[C@H]3O)c1C2=O` the Kd was > 4 mM (inactive). For `Cn1nc(C(=O)Nc2cccnc2)c2ccccc2c1=O`, the Kd was > 4 mM (inactive). In the case of `c1ccc(-n2ncc3c(NCc4ccco4)ncnc32)cc1`, the Kd is reported as > 4 mM (inactive). For `Cc1cccc(N2CCN(C(=O)c3ccncc3)CC2)c1C`, the Kd was > 4 mM (inactive). `NS(=O)(=O)c1ccc(N=Cc2cccs2)cc1` was tested, and the Kd was > 4 mM (inactive). With `CNc1nc(SC)nc(N2CCOCC2)n1` the Kd was > 4 mM (inactive). `CC(=O)N/N=C(\C)c1cccc(N)c1` was tested, and the Kd was > 4 mM (inactive). In the case of `O=C(NC1=NCCS1)c1csc2ccccc12`, the Kd is reported as > 4 mM (inactive). For `CC(C)Oc1ccc(C2CC(=O)NNC2=O)cc1` (configuration not stated), the Kd was > 4 mM (inactive). In the case of `Cc1nc2ccc(C(=O)N3CCSCC3)cc2s1`, the Kd is reported as > 4 mM (inactive). `N#Cc1c(N)c(C(=O)c2ccccc2)n2c1CCC2` was tested, and the Kd was > 4 mM (inactive). `NS(=O)(=O)c1ccc(NC(=O)/C=C\C(=O)O)cc1` was tested, and the Kd was > 4 mM (inactive). In the case of `Cn1nc(C(=O)N2CCCC2)c2ccccc2c1=O`, the Kd is reported as > 4 mM (inactive). For `CCCN1CCC(N2CCC(O)CC2)CC1`, the Kd was > 4 mM (inactive). For `CC(C)NC1CS(=O)(=O)CC1O` (configuration not stated), the Kd was > 4 mM (inactive). In the case of `O=CN1CCN(C(=O)c2ccco2)CC1`, the Kd is reported as > 4 mM (inactive). With `CNC(=O)COc1cccc2c1CCNC2=O` the Kd was > 4 mM (inactive). For `Cc1cc(O)cc(O)c1C(=O)O`, the Kd was > 4 mM (inactive). `O=C(O)c1scc2c1CCCC2` was tested, and the Kd was > 4 mM (inactive). With `CC(=O)c1cc(C)ccc1OC(=O)c1cccnc1` the Kd was > 4 mM (inactive). In the case of `c1ccc2c(NC3=NCCS3)cccc2c1`, the Kd is reported as > 4 mM (inactive). In the case of `NC(=O)CN1CC(c2ccccc2)CC1=O` (configuration not stated), the Kd is reported as > 4 mM (inactive). For `O=C1Nc2ccccc2C1(O)Cc1ccncc1` (configuration not stated), the Kd was > 4 mM (inactive). `Cn1nc(C(=O)N2CCOCC2)c2ccccc2c1=O` was tested, and the Kd was > 4 mM (inactive). For `CC1=C(/C=C/C(C)=C/C=C/C(C)=C/CO)C(C)(C)CCC1`, the Kd was > 4 mM (inactive). `CC(=O)Nc1ccc(NC(=O)C2CC2)cc1` was tested, and the Kd was > 4 mM (inactive). With `NS(=O)(=O)c1ccc(N2CCCC2=O)cc1` the Kd was > 4 mM (inactive). In the case of `Cc1noc(-c2ccccc2)c1CO`, the Kd is reported as > 4 mM (inactive). `O=C(O)CNC(=O)c1ccccc1` was tested, and the Kd was > 4 mM (inactive). In the case of `CC(C)CCCC(C)C1CCC2C3CC(=O)[C@H]4C[C@@H](O)CC[C@]4(C)C3CC[C@]12C` (some centres not stated), the Kd is reported as > 4 mM (inactive). With `Cc1ccc(SCc2cc(=O)n3[nH]cnc3n2)cc1` the Kd was > 4 mM (inactive). For `O=C(O)c1ccnn1-c1ccccc1`, the Kd was > 4 mM (inactive). `Cc1cc(N)ccc1NC(=O)c1ccco1` was tested, and the Kd was > 4 mM (inactive). For `Cc1nc(-c2ccc(CO)s2)cs1`, the Kd was > 4 mM (inactive). In the case of `CN1C(=O)c2ccc(N3CCCC3)cc2C1=O`, the Kd is reported as > 4 mM (inactive). `Cc1ccc(C(=O)Nc2ccncc2)o1` was tested, and the Kd was > 4 mM (inactive). For `Cc1nnc2ccc(N3CCCC3)nn12`, the Kd was > 4 mM (inactive). In the case of `CCOc1ccc(C(=O)c2ccc(O)c(O)c2O)cc1`, the Kd is reported as > 4 mM (inactive). For `O=C(Nc1nnc(-c2ccco2)o1)c1ccc([N+](=O)[O-])o1`, the Kd was > 4 mM (inactive). In the case of `CN(C(N)=O)C1(C)CCS(=O)(=O)C1` (configuration not stated), the Kd is reported as > 4 mM (inactive). `COc1cccc(NC(=O)c2ocnc2C)c1` was tested, and the Kd was > 4 mM (inactive). `CCOC(=O)C1=C(C)N2CCN=C2S1` was tested, and the Kd was > 4 mM (inactive). With `Cc1ccc(C(=O)Nn2cnnc2)s1` the Kd was > 4 mM (inactive). With `Nc1nnc(SCc2cccnc2)s1` the Kd was > 4 mM (inactive). In the case of `O=C(O)c1ccc(-n2cccn2)cc1`, the Kd is reported as > 4 mM (inactive). In the case of `Cc1c(C)n2c(SCC(N)=O)nnc2[nH]c1=O`, the Kd is reported as > 4 mM (inactive). `O=C(NC1CCS(=O)(=O)C1)C1CCCCC1` (configuration not stated) was tested, and the Kd was > 4 mM (inactive). In the case of `CSc1nc(NC(C)(C)C)nc(N2CCOCC2)n1`, the Kd is reported as > 4 mM (inactive). For `CN1CN/C(=N\[N+](=O)[O-])N(c2ccccc2)C1`, the Kd was > 4 mM (inactive). `Nc1ccc2c(c1)CCC2=O` was tested, and the Kd was > 4 mM (inactive). In the case of `COc1cc([C@@H]2c3cc4c(cc3C(OC3O[C@@H]5COC(C)O[C@H]5[C@H](O)[C@H]3O)C3COC(=O)[C@@H]32)OCO4)cc(OC)c1O` (some centres not stated), the Kd is reported as > 4 mM (inactive). For `Cc1nc(SCC#N)c2c3c(sc2n1)CCC3`, the Kd was > 4 mM (inactive). With `COc1ccccc1Nc1nncc(=O)[nH]1` the Kd was > 4 mM (inactive). For `OCc1ccc(N2CCOCC2)nc1`, the Kd was > 4 mM (inactive). With `O=C1N=c2ccccc2=C1c1sc(=S)[nH]c1O` the Kd was > 4 mM (inactive). For `CC(=O)Nc1ccc2c(c1)CCC2=O`, the Kd was > 4 mM (inactive). For `CC12CN(CC#N)CC(C)(CN(CC#N)C1)C2=O`, the Kd was > 4 mM (inactive). `O=C(O)Cc1nc(-c2ccncc2)n[nH]1` was tested, and the Kd was > 4 mM (inactive). With `O=C(Nc1nncs1)c1c(F)cccc1F` the Kd was > 4 mM (inactive). `Cc1cc(O)c(C=O)c(O)c1C(=O)O` was tested, and the Kd was > 4 mM (inactive). For `COc1ccc(C(=O)NNC(=S)NC(C)=O)cc1`, the Kd was > 4 mM (inactive). For `Cn1cccc1C=C1C(=O)NC(=S)NC1=O`, the Kd was > 4 mM (inactive). In the case of `CN1CCN(C(=O)c2ccccc2C(=O)O)CC1`, the Kd is reported as > 4 mM (inactive). With `COc1ccc(CC(=O)c2ccc(O)cc2O)cc1` the Kd was > 4 mM (inactive). With `CCSc1nnc(-c2ccccc2N)c(=O)[nH]1` the Kd was > 4 mM (inactive). With `CC(C)CCCC(C)[C@H]1CCC2C3CC=C4CC(=O)CC[C@]4(C)C3CC[C@@]21C` (some centres not stated) the Kd was > 4 mM (inactive). `CN=C(C)c1c(O)n(C)c(=O)n(C)c1=O` was tested, and the Kd was > 4 mM (inactive). In the case of `CC(=O)NC(C)C12CC3CC(CC(C(=O)O)(C3)C1)C2` (configuration not stated), the Kd is reported as > 4 mM (inactive). For `Cc1cc(C(=O)N2CCN(c3ccccn3)CC2)c(C)o1`, the Kd was > 4 mM (inactive). For `COc1cc2c(c(OC)c1OC)-c1ccc(OC)c(=O)cc1[C@@H](NC(C)=O)CC2`, the Kd was > 4 mM (inactive). For `Fc1ccc(-c2n[nH]c(=S)n2CC2CCCO2)cc1` (configuration not stated), the Kd was > 4 mM (inactive). For `Fc1cccc(Cl)c1CN1CCNCC1`, the Kd was > 4 mM (inactive). For `COc1cc(O)c2c(=O)c(O)c(-c3ccc(O)c(O)c3)oc2c1`, the Kd was > 4 mM (inactive). With `O=c1[nH]cc(Nc2ccccc2)c(=O)[nH]1` the Kd was > 4 mM (inactive). With `O=C(Nn1cnnc1)c1ccccc1-c1ccccc1` the Kd was > 4 mM (inactive). In the case of `CCN1C(=O)N(CO)C2C1N(C)C(=O)N2C` (configuration not stated), the Kd is reported as > 4 mM (inactive). For `Cc1cc(NC(=O)c2ccc3c(c2)OCCO3)no1`, the Kd was > 4 mM (inactive). With `O=C(c1ccco1)N1CCn2c1nc1ccccc12` the Kd was > 4 mM (inactive). `Cc1nc2ccccc2c(=O)[nH]1` was tested, and the Kd was > 4 mM (inactive). In the case of `CC1(C)C(=O)[C@@H]2C[C@@]3(O)C4=CC(=O)O[C@@H](c5ccoc5)[C@]4(C)CCC3C(C)(C2=O)[C@H]1CC(=O)O` (some centres not stated), the Kd is reported as > 4 mM (inactive). `O=C(O)CC12CC3CC(CC(O)(C3)C1)C2` was tested, and the Kd was > 4 mM (inactive). With `CC(=O)Nc1ccc(N2C(=O)C=CC2=O)cc1C` the Kd was > 4 mM (inactive). `COc1cccc(-c2cc(=O)c3cc(OC)ccc3o2)c1` was tested, and the Kd was > 4 mM (inactive). With `CCCC(=O)N1CCSCC1` the Kd was > 4 mM (inactive). For `O=C1CSC(=S)N1N1C(=O)C2C3C=CC(C3)C2C1=O` (configuration not stated), the Kd was > 4 mM (inactive). For `O=C(O)c1cccnc1-c1nc2ccccc2s1`, the Kd was > 4 mM (inactive). `O=C(OCc1c(F)cccc1Cl)c1cnccn1` was tested, and the Kd was > 4 mM (inactive). `Cn1c(CN)nc2ccccc21` was tested, and the Kd was > 4 mM (inactive). With `CCc1nnc(NC(C)=O)s1` the Kd was > 4 mM (inactive). `CC1(C)C2CC(=O)[C@]3(C)C(CC[C@@]4(C)[C@H](c5ccoc5)OC(=O)[C@H]5O[C@]543)[C@@]2(C)C=C[C@@H]1O` (some centres not stated) was tested, and the Kd was > 4 mM (inactive). `CN1CCC(=NNC(=O)c2ccco2)CC1` was tested, and the Kd was > 4 mM (inactive). With `CN1CCCn2c1nc1c2c(=O)[nH]c(=O)n1C` the Kd was > 4 mM (inactive). With `N#CCN1C(=O)c2ccccc2S1(=O)=O` the Kd was > 4 mM (inactive). For `Cn1c(=O)n(CC(=O)Nc2cccnc2)c2ccccc21`, the Kd was > 4 mM (inactive). `O=C(O)c1ccc2sccc2c1` was tested, and the Kd was > 4 mM (inactive). With `Nc1nc2n(c1C(=O)c1ccccc1)CCC2` the Kd was > 4 mM (inactive). `Cc1onc(-c2ccccc2)c1C(=O)Nc1ccncc1` was tested, and the Kd was > 4 mM (inactive). In the case of `O=C(Nc1ccc2c(c1)OCO2)c1cnn2cccnc12`, the Kd is reported as > 4 mM (inactive). With `Cc1cc(C(=O)NCc2cccnc2)cs1` the Kd was > 4 mM (inactive). With `C[C@H]1OC(O[C@H]2[C@@H](O)CC(O[C@H]3[C@@H](O)C[C@H](O[C@H]4CC[C@]5(C)C6CC[C@]7(C)[C@@H](C8=CC(=O)OC8)[C@@H](O)C[C@]7(O)[C@@H]6CC[C@@H]5C4)O[C@@H]3C)O[C@@H]2C)C[C@H](O)C1O` (some centres not stated) the Kd was > 4 mM (inactive). For `O=C(Oc1ccc2c(c1)OCC2=O)c1ccccc1`, the Kd was > 4 mM (inactive). For `CN(C)N1C(=O)C2CCCCC2C1=O` (configuration not stated), the Kd was > 4 mM (inactive).
